The values that follow come from patent US20070244108A1 (priority 2004, published 2007).

One data set has as its target T1, Human 11β HSD1 (Homo sapiens, UniProt P28845).
T1 construct: human hepatic microsomes were obtained from XenoTech, product H0610/Lot 0210078; tissue XenoTech H0610/Lot 0210078; host or cells: human liver (hepatic microsomes)
The data set is described as follows: 11β HSD1 cortisol radioimmunoassay (RIA), human hepatic microsomes. The class given is biochemical. The settings on record: 10 μM compound; typical sd ± 5%, N=2. On the procedure: Standard Operating Procedure for the 11β-Hydroxysteroid Dehydrogenase Type 1 cortisol Radioimmunoassay (11β HSD1 Cortisol RIA).
Prepare 10 mM stock solutions in 100% DMSO at 100 times the required assay concentration. Dilute into assay buffer 1 in 25. Also dilute neat DMSO 1 in 25 into assay buffer for controls.
Dilute this 1 in 50 into assay buffer.
Mix these 3 solutions 1:1:1 to make a solution of sufficient volume for 25 μl additions to each sample.
Dilute stock 20 mg/ml solution 1 in 100 with assay buffer.
Dilute stock antibody solution to 17 μg/ml in antibody binding buffer.
To a u-bottom polypropylene 96 well plate add:
25 μl compound dilution or diluted DMSO to controls, NSB's and blanks
10 μl […] in DMSO (enzyme stop solution) to blanks
25 μl substrate mixture to all samples
50 μl diluted microsomes to all samples
Incubate plate for 30 min at 37° C. shaking
Add 10 μl enzyme stop solution to all wells except the blanks
Add 100 μl antibody solution to all wells except the NSB's, add antibody binding buffer to these wells
Incubate at 37° C. for 1 h
Add 50 μl/well charcoal solution and mix with an 8-channel pipette (4-5 aspirations)
Centrifuge at 4° C., 2000×g for 15 min
Transfer 100 μl supernatant into an Optiplate, also add 25 μl substrate mixture to 2 empty wells to indicate counting efficiency
Add 200 μl Microscint-40 to all wells and count on a Topcount
The 11β HSD1 enzyme assay was carried out following the standard operating procedure described above in u-bottom polypropylene 96 well plates or 1.5 ml Eppendorf tubes as indicated for each experiment. Subsequent to stopping the enzyme reaction, 100 μl antibody prepared in buffer 3 unless otherwise indicated was added to test samples and 100 μl buffer 3 was added to the NSB samples. […] Aliquots of the supernatant (100 μl) were transferred to an Optiplate and counted on the Topcount in 150-200 μl Microscint 40. In some experiments, aliquots of supernatant were transferred to scintillation vials and counted on the Tricarb LSC in 5 ml Ultima Gold scintillant.

As a reminder, the melting point is the temperature, or range, at which the solid turns liquid. By inhibition is commonly meant the share of the control response that was lost under treatment. A low value points to little suppression.

T1 sequence (P28845 whole entry): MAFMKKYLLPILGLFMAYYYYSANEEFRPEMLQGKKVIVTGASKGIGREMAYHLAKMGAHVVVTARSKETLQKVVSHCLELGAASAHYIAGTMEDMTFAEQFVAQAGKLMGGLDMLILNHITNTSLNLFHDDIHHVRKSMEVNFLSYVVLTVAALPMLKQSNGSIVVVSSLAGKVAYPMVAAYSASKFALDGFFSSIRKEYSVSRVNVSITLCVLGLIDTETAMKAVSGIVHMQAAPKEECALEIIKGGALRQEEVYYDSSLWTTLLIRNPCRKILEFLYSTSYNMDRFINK

For the molecule `CCCc1ccc(S(=O)(=O)NN2CCN(C)CC2)cc1` [STX551, N-(4-Methylpiperazin-1-yl)-4-propylbenzenesulfonamide], the melting point lay within 153 to 154 °C. The molecule further had an inhibition at 10 µM at Human 11β HSD1 of over 35%.
`CCCc1ccc(S(=O)(=O)NCCc2ncc[nH]2)cc1` [STX578, N-[2-(4H-Imidazol-2-yl)-ethyl]-4-propylbenzenesulfonamide]: at Human 11β HSD1, the inhibition at 10 µM is over 35%.
Molecule `CCCc1ccc(S(=O)(=O)NN2CCOCC2)cc1` [STX586, N-Morpholin-4-yl-4-propyl-benzenesulfonamide] returned a melting point of 150 to 152 °C. On Human 11β HSD1, this molecule displayed an inhibition at 10 µM of over 35%.
